Assay results published in patent US11661400B2, “NADPH oxidase inhibitors, pharmaceutical composition comprising the same, and application thereof” (TAIWANJ PHARMACEUTICALS CO., LTD., priority 2018, dated 2023).

Key:
[1] = biological target: T1, NOX2 (Homo sapiens, UniProt P04839); test: NOX2 HL60 cell-based assay (PMA oxidative burst, L012 chemiluminescence); conditions: DMSO-differentiated HL-60 cells, PMA-stimulated; for inhibition at 0.1 µM: HL-60, 100 nM; for inhibition at 1 µM: HL-60, 1000 nM
T1 construct: HL-60 cells, rich in NOX2 expression; endogenous in cells; host or cells: DMSO-differentiated HL-60
T1 sequence (P04839 2-570 limits assumed): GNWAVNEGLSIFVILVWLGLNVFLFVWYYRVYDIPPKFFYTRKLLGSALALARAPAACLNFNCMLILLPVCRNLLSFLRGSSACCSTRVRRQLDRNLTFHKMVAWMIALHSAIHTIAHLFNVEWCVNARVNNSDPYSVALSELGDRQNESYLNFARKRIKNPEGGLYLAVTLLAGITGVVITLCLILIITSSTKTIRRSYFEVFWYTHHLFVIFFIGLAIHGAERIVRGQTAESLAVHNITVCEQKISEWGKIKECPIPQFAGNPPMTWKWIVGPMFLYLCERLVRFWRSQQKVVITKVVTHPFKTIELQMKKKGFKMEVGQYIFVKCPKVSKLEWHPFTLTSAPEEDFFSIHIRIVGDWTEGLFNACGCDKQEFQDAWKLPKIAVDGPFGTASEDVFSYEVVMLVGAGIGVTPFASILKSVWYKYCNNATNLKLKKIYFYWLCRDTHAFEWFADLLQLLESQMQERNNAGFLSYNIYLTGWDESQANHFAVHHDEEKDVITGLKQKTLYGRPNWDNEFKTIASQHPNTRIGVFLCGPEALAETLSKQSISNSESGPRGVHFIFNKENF
T1 sequence (P13498 2-195 partner limits assumed): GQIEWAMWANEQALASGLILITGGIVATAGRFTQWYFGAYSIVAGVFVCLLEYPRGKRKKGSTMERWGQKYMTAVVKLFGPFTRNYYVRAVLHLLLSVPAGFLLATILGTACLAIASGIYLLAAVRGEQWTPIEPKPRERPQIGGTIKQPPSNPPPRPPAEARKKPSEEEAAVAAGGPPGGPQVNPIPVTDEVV
Outline: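 DMSO-differentiated HL-60 cells (2.5×10^5/well) with 100 μM L012 preincubated with compound 30-60 min at 37 °C in the dark. Oxidative burst triggered by 10 ng/mL PMA; superoxide chemiluminescence read every 5 min for 60 min.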

[2] = biological target: T2, NOX4 (Homo sapiens, UniProt Q9NPH5); test: NOX4 HEK293 overexpression cell-based assay (Amplex Red H2O2); conditions: HEK293 cells stably overexpressing NOX4, DMSO = 0, GKT137831 = 100; for inhibition at 1 µM: HEK293, 1000 nM; for inhibition at 0.1 µM: HEK293, 100 nM
T2 construct: expressed in transfected cells
T2 sequence (Q9NPH5 1-578): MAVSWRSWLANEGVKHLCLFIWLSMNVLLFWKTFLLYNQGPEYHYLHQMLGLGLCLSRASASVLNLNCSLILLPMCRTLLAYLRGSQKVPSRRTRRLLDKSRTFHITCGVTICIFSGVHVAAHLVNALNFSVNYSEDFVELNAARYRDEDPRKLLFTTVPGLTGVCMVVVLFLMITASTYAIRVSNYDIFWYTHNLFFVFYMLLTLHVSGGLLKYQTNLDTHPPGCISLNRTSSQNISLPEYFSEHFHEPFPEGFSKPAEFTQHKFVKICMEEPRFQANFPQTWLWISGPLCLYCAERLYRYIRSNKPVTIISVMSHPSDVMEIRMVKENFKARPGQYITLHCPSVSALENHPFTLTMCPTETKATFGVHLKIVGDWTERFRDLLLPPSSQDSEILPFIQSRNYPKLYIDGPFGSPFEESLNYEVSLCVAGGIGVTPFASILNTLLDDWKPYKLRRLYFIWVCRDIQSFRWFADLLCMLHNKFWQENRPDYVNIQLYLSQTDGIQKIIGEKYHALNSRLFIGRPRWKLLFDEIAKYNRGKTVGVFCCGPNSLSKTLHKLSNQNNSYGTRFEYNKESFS
T2 sequence (P13498 2-195 partner limits assumed): T1 sequence (P13498 2-195 partner limits assumed)
Outline: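 HEK293 cells stably overexpressing NOX4 (3×10^4) preincubated 30 min at 37° C with compound in KRPG buffer, then mixed with Amplex Red reagent solution (50 μM Amplex Red, 0.1 units/mL HRP) for 90 min at 37° C in the dark. Supernatant fluorescence read at 530/590 nm; DMSO set to 0 and GKT137831 to 100.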

[3] = biological target: T3, NOX1 (Homo sapiens, UniProt Q9Y5S8); test: NOX1 HT29 cell-based assay (luminol/HRP luminescence); conditions: HT29 cells, DMSO = 0%, GKT137831 = 100%; for inhibition at 0.1 µM / inhibition at 1 µM: HT-29
T3 construct: endogenous in cells; host or cells: HT29
T3 sequence (Q9Y5S8 1-564): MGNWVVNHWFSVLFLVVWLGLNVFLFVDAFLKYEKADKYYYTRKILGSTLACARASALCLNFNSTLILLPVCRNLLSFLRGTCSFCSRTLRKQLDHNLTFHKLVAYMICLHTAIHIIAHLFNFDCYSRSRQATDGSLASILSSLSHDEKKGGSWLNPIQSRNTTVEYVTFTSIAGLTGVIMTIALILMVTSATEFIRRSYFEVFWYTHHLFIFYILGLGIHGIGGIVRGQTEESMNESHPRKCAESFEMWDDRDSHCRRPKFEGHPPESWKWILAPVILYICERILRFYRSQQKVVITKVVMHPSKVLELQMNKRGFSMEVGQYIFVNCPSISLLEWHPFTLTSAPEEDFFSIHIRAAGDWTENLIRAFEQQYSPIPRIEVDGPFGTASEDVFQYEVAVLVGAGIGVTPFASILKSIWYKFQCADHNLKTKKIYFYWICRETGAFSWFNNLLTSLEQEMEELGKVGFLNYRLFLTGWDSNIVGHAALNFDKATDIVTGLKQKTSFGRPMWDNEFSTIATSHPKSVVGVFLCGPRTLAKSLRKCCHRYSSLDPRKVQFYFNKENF
T3 sequence (P13498 2-195 partner limits assumed): T1 sequence (P13498 2-195 partner limits assumed)
Outline: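 HT29 cells (1-2×10^5 per well) pretreated 30-60 min at 37 °C with compound at 100 nM and 1000 nM final, in duplicate, 0.1% DMSO. ROS read as luminol (100 μM)/HRP (0.4 U) luminescence. Activity normalised to DMSO (0%) and GKT137831 (100%).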

Compound	inhibition at 0.1 µM [1] [%]	inhibition at 1 µM [1] [%]	% Inhibition NOX4 ([2]; 100 nM)	inhibition at 1 µM [2] [%]	inhibition at 0.1 µM ([3]; 100 nM) [%]	inhibition at 1 µM ([3]; 1000 nM) [%]	inhibition at 0.1 µM [2] [%]	% Inhibition NOX1 ([3]; 100 nM, 0.1 µM)	% Inhibition NOX2 ([1]; 100 nM)	% Inhibition NOX4 ([2]; 1000 nM)	% Inhibition NOX2 ([1]; 1000 nM)	% Inhibition NOX1 ([3]; 100 nM)	% Inhibition NOX1 ([3]; 1000 nM)
COc1ccc(-c2[nH]c3cc(OC)c(OC)cc3c(=O)c2O)cc1 [Compound 2, 3-hydroxy-6,7-dimethoxy-2-(4-methoxyphenyl) quinolin-4(1H)-one 2,2,2-trifluoroacetate]	≤ 19	50 to 79	C (the percent of inhibition of NOX by the compounds ranges from 2000 to 49%)	≥ 80	≥ 80	≥ 80	–	–	–	–	–	–	–
COc1cc2[nH]c(-c3ccc(Cl)cc3)c(O)c(=O)c2cc1OC [Compound 8]	≤ 19	≤ 19	–	50 to 79	–	≥ 80	≤ 19	C (the percent of inhibition of NOX by the compounds ranges from 2000 to 49%)	–	–	–	–	–
COc1ccccc1-c1[nH]c2cc3c(cc2c(=O)c1O)OCO3 [Compound 26]	50 to 79	≥ 80	C (the percent of inhibition of NOX by the compounds ranges from 2000 to 49%)	≥ 80	≥ 80	≥ 80	–	–	–	–	–	–	–
COc1cc2[nH]c(-c3ccccc3)c(N)c(=O)c2cc1OC [Compound 37]	50 to 79	≥ 80	–	50 to 79	≤ 19	≥ 80	≤ 19	–	–	–	–	–	–
COc1ccc(-c2[nH]c3cc(OC)c(OC)cc3c(=O)c2O)c(OC)c1 [Compound 15]	–	≥ 80	C (the percent of inhibition of NOX by the compounds ranges from 2000 to 49%)	≥ 80	≥ 80	≥ 80	–	–	C (the percent of inhibition of NOX by the compounds ranges from 2000 to 49%)	–	–	–	–
COc1cc2[nH]c(-c3ccc(F)cc3)c(O)c(=O)c2cc1OC [Compound 13]	≤ 19	≥ 80	C (the percent of inhibition of NOX by the compounds ranges from 2000 to 49%)	≥ 80	≥ 80	≥ 80	–	–	–	–	–	–	–
CCOc1ccccc1-c1[nH]c2cc(OC)c(OC)cc2c(=O)c1O [Compound 21]	≤ 19	50 to 79	C (the percent of inhibition of NOX by the compounds ranges from 2000 to 49%)	≥ 80	≥ 80	≥ 80	–	–	–	–	–	–	–
COc1cc2[nH]c(-c3ccccc3OC)c(N)c(=O)c2cc1OC [Compound 38]	≤ 19	≤ 19	–	–	≤ 19	≤ 19	≤ 19	–	–	C (the percent of inhibition of NOX by the compounds ranges from 2000 to 49%)	–	–	–
COc1cc2[nH]c(-c3ccccc3OC(F)(F)F)c(O)c(=O)c2cc1OC.Cl [Compound 52]	–	–	C (the percent of inhibition of NOX by the compounds ranges from 2000 to 49%)	–	–	–	–	–	C (the percent of inhibition of NOX by the compounds ranges from 2000 to 49%)	B (the percent of inhibition of NOX by the compounds ranges from 50% o to 79% o)	B (the percent of inhibition of NOX by the compounds ranges from 50% o to 79% o)	A (the percent of inhibition of NOX by the compounds is larger than or equals to 80%)	A (the percent of inhibition of NOX by the compounds is larger than or equals to 80%)
COc1cc2[nH]c(C(C)(C)C)c(O)c(=O)c2cc1OC [Compound 14]	≤ 19	≤ 19	–	≤ 19	≤ 19	≥ 80	≤ 19	–	–	–	–	–	–
COc1cccc(-c2[nH]c3cc(OC)c(OC)cc3c(=O)c2O)c1 [Compound 4]	≤ 19	50 to 79	–	≥ 80	50 to 79	≥ 80	≤ 19	–	–	–	–	–	–
COc1ccccc1-c1[nH]c2cccc(-c3cccc(N(C)C)c3)c2c(=O)c1O [Compound 40]	–	50 to 79	–	50 to 79	≤ 19	≥ 80	≤ 19	–	C (the percent of inhibition of NOX by the compounds ranges from 2000 to 49%)	–	–	–	–
COc1cc2[nH]c(-c3ccccc3C(F)(F)F)c(O)c(=O)c2cc1OC.Cl [Compound 42, 3-hydroxy-6,7-dimethoxy-2-(2-(trifluoromethyl)phenyl) quinolin-4(1H)-one hydrochloride]	50 to 79	–	B (the percent of inhibition of NOX by the compounds ranges from 50% o to 79% o)	–	–	–	–	–	–	B (the percent of inhibition of NOX by the compounds ranges from 50% o to 79% o)	A (the percent of inhibition of NOX by the compounds is larger than or equals to 80%)	A (the percent of inhibition of NOX by the compounds is larger than or equals to 80%)	A (the percent of inhibition of NOX by the compounds is larger than or equals to 80%)
